This is an account of results in patent publication US5723747A, “Wax esters in transformed plants” (Calgene, Inc., priority 1994, dated 1998).

Data set [1] has as its target T1, jojoba acyl-CoA reductase (Simmondsia chinensis, UniProt Q9XGY7, S459G). As to the kind of experiment: biochemical. The note with it: for effect of salt on reductase activity (in words): 0.5M monobasic salts, divalent salts at 0.167M and 0.5M; for Reductase Activity, Acyl-CoA (10 μM): acyl-CoA as substrate at 10 μM, 0.5M NaCl, pH 7.5; for effect of end-products and cofactors on reductase activity (in words): CoA and NADP+ at millimolar concentrations. How it is done: (§1) […] The incubation mixture also contains 10% w/v glycerol, 1 mM DTT, and is buffered with 50 mM HEPES (4-[2-hydroxyethyl]-1-piperazineethane-sulfonic acid) (HEPES, here and as referred to hereafter is added from a 1M stock solution adjusted to pH 7.5).
(§2) […] The assay is terminated by placing the assay tube on ice and immediately adding 0.25 ml isopropanol:acetic acid (5:1 v/v). Unlabeled wax esters (0.1 mg) and oleyl alcohol (0.1 mg) are added as carriers. The [^14 C] lipids are extracted by the scaled-down protocol of Hara and Radin (Anal. Biochem. (1978) 90:420). Six ml of hexane/isopropanol (3:2, v/v) is added to the terminated assay. The sample is vortexed, 2 ml of aqueous sodium sulphate solution (5.5% w/v) is added, and the sample is again vortexed.
(§3) The incubation mixture also contains 10% w/v glycerol, 1 mM DTT, and is buffered with 50 mM HEPES (4-[2-hydroxyethyl]-1-piperazineethane-sulfonic acid) (HEPES, here and as referred to hereafter is added from a 1M stock solution adjusted to pH 7.5). […]
(§4) […] The assay is terminated by placing the assay tube on ice and immediately adding 0.25 ml isopropanol:acetic acid (4:1 v/v). Unlabeled wax esters (25 μg), oleyl alcohol (50 μg), and oleic acid (50 μg) are added as carriers. The [^14 C] lipids are extracted by the scaled-down protocol of Hara and Radin (Anal. Biochem. (1978) 90:420). Four ml of hexane/isopropanol (3:2, v/v) is added to the terminated assay. The sample is vortexed, 2 ml of aqueous sodium sulphate solution (6.7% w/v) is added, and the sample is again vortexed.
(§5) Following addition of the sodium sulphate and vortexing the sample, the upper organic phase is removed and the lower aqueous phase is washed with 4 ml hexane/isopropanol (7:2 v/v). The organic phases are pooled and evaporated to dryness under nitrogen. The lipid residue is resuspended in a small volume of heptane, and an aliquot is assayed for radioactivity by liquid scintillation counting. The remainder of the sample can be used either for TLC analysis of the labeled classes, or for derivatization to cleave the wax esters, and thereby give a measure of total alcohol produced.
(§6) For lipid class analysis the sample is applied to a silica TLC plate, and the plate is developed in hexane/diethyl ether/acetic acid (such as 80:20:1 or 70:30:1 v/v/v). The distribution of radioactivity between the lipid classes, largely wax esters (when ligase is present, as in the microsomal membrane preparation assay), free fatty acids, fatty alcohols, and polar lipids at the origin, is measured using an AMBIS radioanalytic imaging system (AMBIS Systems Inc., San Diego, Calif.). If necessary the individual lipid classes can be recovered from the TLC plate for further analysis.
(§7) Following addition of the sodium sulfate and vortexing the sample, a known percentage of the organic phase is removed and counted via liquid scintillation counting. This calculation is used to estimate the total counts in the organic phase.

In the next data set the target is T2, jojoba wax synthase (Simmondsia chinensis, UniProt Q9XGY6).
T2 construct: added to a microsomal membrane fraction having wax synthase activity; from tissue; host or cells: jojoba microsomal membrane fraction
T2 sequence (Q9XGY6 1-352): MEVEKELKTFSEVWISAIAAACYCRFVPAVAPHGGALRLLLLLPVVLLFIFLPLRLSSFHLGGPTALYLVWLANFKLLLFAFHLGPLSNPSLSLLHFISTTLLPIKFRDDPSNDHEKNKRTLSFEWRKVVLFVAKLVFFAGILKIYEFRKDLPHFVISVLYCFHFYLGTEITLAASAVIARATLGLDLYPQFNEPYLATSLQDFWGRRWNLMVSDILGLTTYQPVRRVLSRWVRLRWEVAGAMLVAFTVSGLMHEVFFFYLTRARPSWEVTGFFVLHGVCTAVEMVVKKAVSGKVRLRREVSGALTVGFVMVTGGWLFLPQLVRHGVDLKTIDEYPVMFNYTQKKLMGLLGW
Put plainly: Wax synthase assay, microsomal membrane fraction. Conditions: for Wax synthase Activity, Acyl Group: 80 μM acyl-CoA substrate, 100 μM radiolabeled oleyl alcohol; for Wax synthase Activity, Alcohol Group: 100 μM alcohol substrate, 40 μM radiolabeled eicosenoyl-CoA. The format is biochemical. The protocol:
Wax synthase activity is measured by incubation of 40 μM [1-^14 C]acyl-CoA (usually palmitoyl-CoA, sp. act. 5.1-5.6 mCi/mmol) and 200 μM oleyl alcohol with the sample to be assayed in a total volume of 0.25 ml. The incubation mixture also contains 20% w/v glycerol, 1 mM DTT, 0.5M NaCl and is buffered with 25 mM HEPES (4-[2-hydroxyethyl]-1-piperazineethane-sulfonic acid).
A substrate mixture is prepared in a glass vial, with oleyl alcohol being added immediately before use, and is added to samples.
Acyl-CoA and alcohol substrates having varying carbon chain lengths and degrees of unsaturation were added to a microsomal membrane fraction having wax synthase activity to determine the range of substrates recognized by the jojoba wax synthase. Wax synthase activity was measured as described in Example 1, with acyl specificity measured using 80 μM of acyl-CoA substrate and 100 μM of radiolabeled oleyl alcohol. Alcohol specificity was measured using 100 μM of alcohol substrate and 40 μM of radiolabeled eicosenoyl-CoA.

Data set [2] concerns the target T1, jojoba acyl-CoA reductase. Set-up: The microsomal membrane preparation described above is used for further characterization of the reductase enzyme; from tissue; host or cells: jojoba embryos (about 90 to 110 days postanthesis), microsomal membrane preparation. Conditions: previously shown, Pollard et al.; cited from earlier work.
Data set [3] has as its target jojoba acyl-CoA reductase (Simmondsia chinensis, UniProt Q9XGY7). Put plainly: biochemical. How it is done: as §1, §2, §3, §4, §5, §6, §7
[4] abbreviates: palmitoyl thioesters as acyl substrates.

Like-named read-outs stand apart in the source and are kept apart here.

T1 sequence (Q9XGY7 whole entry S459G): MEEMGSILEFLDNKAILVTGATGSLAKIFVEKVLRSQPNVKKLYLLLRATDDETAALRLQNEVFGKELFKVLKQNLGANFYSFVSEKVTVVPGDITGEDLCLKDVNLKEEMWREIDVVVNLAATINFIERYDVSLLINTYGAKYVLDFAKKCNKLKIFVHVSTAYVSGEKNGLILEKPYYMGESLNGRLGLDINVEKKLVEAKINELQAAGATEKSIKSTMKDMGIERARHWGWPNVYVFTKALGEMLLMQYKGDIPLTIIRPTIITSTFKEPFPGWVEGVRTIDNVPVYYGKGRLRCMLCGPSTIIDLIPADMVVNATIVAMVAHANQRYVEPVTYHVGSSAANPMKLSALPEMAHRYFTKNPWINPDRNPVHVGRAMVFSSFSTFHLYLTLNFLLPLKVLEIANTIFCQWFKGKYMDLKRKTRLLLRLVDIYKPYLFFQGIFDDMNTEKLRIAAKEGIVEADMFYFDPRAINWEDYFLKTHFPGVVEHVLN
Chain of jojoba acyl-CoA reductase (Simmondsia chinensis, UniProt Q9XGY7) (Q9XGY7 whole entry S459G): as above

For `O=S(=O)([O-])[O-].[Na+].[Na+]` [Na2 SO4], the “effect of salt on reductase activity (in words)” value in data set [1] is given as “stimulate reductase activity”.
In the case of `CCCCCCCCCCCCCC(=O)SCCNC(=O)CCNC(=O)[C@H](O)C(C)(C)COP(=O)(O)OP(=O)(O)OC[C@H]1O[C@@H](n2cnc3c(N)ncnc32)[C@H](O)[C@@H]1OP(=O)(O)O` [14:0], at jojoba wax synthase, the “Wax synthase Activity, Acyl Group” value was determined as 95 pmol/min and the “Wax synthase Activity, Alcohol Group” value worked out at 145 pmol/min.
As for `O[C@H](CS)[C@H](O)CS` (racemic) [DTT, Dithiothreitol], the “effect of effector on reductase activity (in words)” value in data set [1] is on record as “stimulatory”.
Consider `[Cl-].[Na+]` [NaCl], for which, in data set [1] (addition of 0.5M salt, 500000 µM), the “stimulation of reductase activity” value is “Up to 15 fold”.
For palmitoyl-ACP [16:0], in data set [1] (substrate specificity experiment, 10 uM substrate), the “activity as substrate of the reductase (in words)” value is “high”. The “wax synthase activity relative to acyl-CoA” value with jojoba wax synthase (setting [4]) is given as ~ 10 % of that with acyl-CoA.
As to `[Cl-].[Cl-].[Mg+2]` [MgCl2], the “effect of salt on reductase activity (in words)” value in data set [1] is on record as “stimulate reductase activity”.
Take `CCCCCCCC/C=C\CCCCCCCCCCCC(=O)SCCNC(=O)CCNC(=O)[C@H](O)C(C)(C)COP(=O)(O)OP(=O)(O)OC[C@H]1O[C@@H](n2cnc3c(N)ncnc32)[C@H](O)[C@@H]1OP(=O)(O)O` [22:1]: the “Reductase Activity, Acyl-CoA (10 μM)” value in data set [1] turned out to be 1.0 pmol/min/µL. Also, on jojoba wax synthase, the “Wax synthase Activity, Acyl Group” value was determined as 39 pmol/min and the “Wax synthase Activity, Alcohol Group” value was 41 pmol/min.
For `O=C(O)c1cc[c]([Hg][OH])cc1` [para-hydroxymercuribenzoate], in data set [1], the “inhibitory effect on jojoba acyl-CoA reductase activity (in words)” value was “some inhibitory effect”.
With `CCCCCCCCCCCCCCCCCC(=O)SCCNC(=O)CCNC(=O)[C@H](O)C(C)(C)COP(=O)(O)OP(=O)(O)OC[C@H]1O[C@@H](n2cnc3c(N)ncnc32)[C@H](O)[C@@H]1OP(=O)(O)O` [18:0], the “Reductase Activity, Acyl-CoA (10 μM)” value in data set [1] is 1.4 pmol/min/µL. Also, at jojoba wax synthase, the “Wax synthase Activity, Acyl Group” value was found to be 51 pmol/min and the “Wax synthase Activity, Alcohol Group” value amounted to 56 pmol/min.
Regarding `C/C=C/C/C=C/CCC(=O)[C@H]1O[C@H]1C(N)=O` [Cerulinen], the “inhibitory effect on jojoba acyl-CoA reductase activity (in words)” value in data set [1] was “no strong inhibitory effect”.
As for `[Ca+2].[Cl-].[Cl-]` [CaCl2], in data set [1], the “effect of salt on reductase activity (in words)” value was “stimulate reductase activity”.
Take bovine serum albumin [BSA]: the “effect on reductase activity (in words)” value is given as “inhibition of activity” in data set [1] (concentrations at and above 0.2 mg/ml); “small stimulation” in data set [1] (low concentrations, 0.02-0.075 mg/ml).
Consider `CC(C)(COP(=O)(O)OP(=O)(O)OC[C@H]1O[C@@H](n2cnc3c(N)ncnc32)[C@H](O)[C@@H]1OP(=O)(O)O)[C@@H](O)C(=O)NCCC(=O)NCCS` [CoA], for which the “effect of end-products and cofactors on reductase activity (in words)” value in data set [1] is reported as “significant inhibition”.
`CCCCCCCCCCCCCCCCCCCCCC(=O)SCCNC(=O)CCNC(=O)[C@H](O)C(C)(C)COP(=O)(O)OP(=O)(O)OC[C@H]1O[C@@H](n2cnc3c(N)ncnc32)[C@H](O)[C@@H]1OP(=O)(O)O` [22:0]: at jojoba wax synthase, the “Wax synthase Activity, Acyl Group” value turned out to be 46 pmol/min and the “Wax synthase Activity, Alcohol Group” value came out at 17 pmol/min.
With `CCN1C(=O)C=CC1=O` [N-ethylmaleimide], the “inhibitory effect on jojoba acyl-CoA reductase activity (in words)” value in data set [1] is recorded as “strongly inhibit”.
Take `[Cl-].[Li+]` [LiC1]: the “effect of salt on reductase activity (in words)” value in data set [1] is “stimulate reductase activity”.
Take `NC(=O)c1ccc[n+]([C@@H]2O[C@H](COP(=O)([O-])OP(=O)(O)OC[C@H]3O[C@@H](n4cnc5c(N)ncnc54)[C@H](OP(=O)(O)O)[C@@H]3O)[C@@H](O)[C@H]2O)c1` [NADP+]: the “effect of end-products and cofactors on reductase activity (in words)” value in data set [1] is listed as “significant inhibition”.
For `NC(=O)CI` [iodoacetamide], the “inhibitory effect on jojoba acyl-CoA reductase activity (in words)” value in data set [1] is given as “no effect”.
On to `[Cl-].[K+]` [KC1], for which, in data set [1], the “effect of salt on reductase activity (in words)” value is “stimulate reductase activity”.
Consider `NC(=O)C1=CN([C@@H]2O[C@H](COP(=O)(O)OP(=O)(O)OC[C@H]3O[C@@H](n4cnc5c(N)ncnc54)[C@H](O)[C@@H]3O)[C@@H](O)[C@H]2O)C=CC1` [NADH], for which, in data set [1], the “effect of end-products and cofactors on reductase activity (in words)” value is listed as “marginal effects”.
On to `CCCCCCCCCCCCCCCC(=O)SCCNC(C)=O` [N-acetyl-S-palmitoyl cysteamine], for which the “wax synthase activity towards acyl-thioester substrates (in words)” value at jojoba wax synthase (setting [4]) was “no activity was detectable”.
Consider `O=C(O)CN(CCN(CC(=O)O)CC(=O)O)CC(=O)O` [EDTA, ethylenediaminetetraacetic acid], for which the “effect of effector on reductase activity (in words)” value in data set [1] is listed as “some stimulation”.
`CC[C@H](C)C(=O)O[C@H]1C[C@@H](C)C=C2C=C[C@H](C)[C@H](CC[C@@H]3C[C@@H](O)CC(=O)O3)[C@H]21` [Mevinolin]: the “concentration at which an effect on jojoba acyl-CoA reductase is seen” value in data set [1] (only has an effect at relatively high concentrations) was determined as 100 µM.
In the case of `CCCCCCCCCCCCCCCCCCCC(=O)SCCNC(=O)CCNC(=O)[C@H](O)C(C)(C)COP(=O)(O)OP(=O)(O)OC[C@H]1O[C@@H](n2cnc3c(N)ncnc32)[C@H](O)[C@@H]1OP(=O)(O)O` [20:0], on jojoba wax synthase, the “Wax synthase Activity, Acyl Group” value is 49 pmol/min and the “Wax synthase Activity, Alcohol Group” value was found to be 21 pmol/min.
Turning to `CCCCC/C=C\C/C=C\CCCCCCCC(=O)SCCNC(=O)CCNC(=O)[C@H](O)C(C)(C)COP(=O)(O)OP(=O)(O)OC[C@H]1O[C@@H](n2cnc3c(N)ncnc32)[C@H](O)[C@@H]1OP(=O)(O)O` [18:2], on jojoba wax synthase, the “Wax synthase Activity, Acyl Group” value turned out to be 7 pmol/min and the “Wax synthase Activity, Alcohol Group” value is 123 pmol/min.
Regarding `NC(=O)c1ccc[n+]([C@@H]2O[C@H](COP(=O)([O-])OP(=O)(O)OC[C@H]3O[C@@H](n4cnc5c(N)ncnc54)[C@H](O)[C@@H]3O)[C@@H](O)[C@H]2O)c1` [AND+], the “effect of end-products and cofactors on reductase activity (in words)” value in data set [1] is “marginal effects”.
Regarding stearoyl-ACP, in data set [2], the “activity as substrate of the reductase (in words)” value is reported as “shown to have activity as a substrate”.
`N#CS` [KSCN]: in data set [1], the “effect of salt on reductase activity (in words)” value is listed as “no stimulation or marginal stimulation”.
One may read the IC50 as the concentration at which inhibition is half-maximal. Read a low IC50 as greater potency. Consider `CCCCCCCCCCCCCCCC(=O)SCCNC(=O)CCNC(=O)[C@H](O)C(C)(C)COP(=O)(O)OP(=O)(O)OC[C@H]1O[C@@H](n2cnc3c(N)ncnc32)[C@H](O)[C@@H]1OP(=O)(O)O` [16:0, palmitoyl-CoA], for which, in data set [3], the half-maximal inhibitory concentration (IC50) was 5 µM.
